The target in series [1] is T1, Multidrug efflux pump LfrA (Mycobacterium smegmatis (strain ATCC 700084 / mc(2)155)) (UniProt A0R5K5).
T1 sequence (whole entry): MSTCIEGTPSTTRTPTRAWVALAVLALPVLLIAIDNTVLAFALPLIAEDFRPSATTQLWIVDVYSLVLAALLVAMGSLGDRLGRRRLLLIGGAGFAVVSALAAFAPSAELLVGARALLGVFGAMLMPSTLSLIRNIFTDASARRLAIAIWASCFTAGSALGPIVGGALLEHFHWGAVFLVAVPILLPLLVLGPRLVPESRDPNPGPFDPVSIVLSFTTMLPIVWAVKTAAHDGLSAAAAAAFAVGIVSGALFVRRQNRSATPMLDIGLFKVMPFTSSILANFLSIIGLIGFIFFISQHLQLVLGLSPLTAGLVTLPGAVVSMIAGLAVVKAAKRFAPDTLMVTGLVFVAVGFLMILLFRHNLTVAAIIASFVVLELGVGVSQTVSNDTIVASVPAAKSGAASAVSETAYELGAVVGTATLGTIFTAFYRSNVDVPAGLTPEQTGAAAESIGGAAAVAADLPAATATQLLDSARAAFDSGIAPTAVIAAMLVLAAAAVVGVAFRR
The experiment in a line: Inhibition of LfrA in Mycobacterium smegmatis MC2 155 ATCC 700084 assessed as decrease in EtBr MIC at 100 ug/ml after 72 hrs by MTT assay relative to control. The settings on record: Mycolicibacterium smegmatis MC2 155. (Tetrazolium dyes change colour on reduction, which living cells bring about.)

In series [2] the test system is Mycolicibacterium smegmatis. Put plainly: Growth inhibition of Mycobacterium smegmatis MC2 155 ATCC 700084 after 72 hrs by MTT assay. Format: organism-based.
Series [3] can be described thus: Cytotoxicity against rat CC1 cells assessed as cell survival at 100 ug/ml after 24 hrs by Alamar blue reduction assay relative to control. The settings on record: read-out: Survival. The format is cell-based, CC-1.
In series [4] the target is T1, Multidrug efflux pump LfrA (Mycobacterium smegmatis (strain ATCC 700084 / mc(2)155)). The experiment in a line: Inhibition of LfrA in Mycobacterium smegmatis MC2 155 ATCC 700084 assessed as increase in EtBr accumulation at 25 ug/ml measured every 5 mins for 35 mins by fluorometric analysis. The settings on record: Mycolicibacterium smegmatis MC2 155.
In series [5] the test system is CC-1. Put plainly: Cytotoxicity against rat CC1 cells assessed as decrease in cell survival at 200 ug/ml after 24 hrs by Alamar blue reduction assay relative to control. Format: cell-based. The settings on record: cc-1, 24 h. (The colour change of resazurin is a common sign of viable cells or microbes.)
The target in series [6] is T1, Multidrug efflux pump LfrA (Mycobacterium smegmatis (strain ATCC 700084 / mc(2)155)). The experiment in a line: Inhibition of LfrA in Mycobacterium smegmatis MC2 155 ATCC 700084 assessed as increase in EtBr accumulation at 50 ug/ml measured every 5 mins for 35 mins by fluorometric analysis. The settings on record: Mycolicibacterium smegmatis MC2 155.
Series [7] can be described thus: Cytotoxicity against rat CC1 cells assessed as cell survival at 50 ug/ml after 24 hrs by Alamar blue reduction assay relative to control. The format is cell-based, CC-1. The settings on record: read-out: Survival.
In series [8] the target is T1, Multidrug efflux pump LfrA (Mycobacterium smegmatis (strain ATCC 700084 / mc(2)155)). The experiment in a line: Inhibition of LfrA in Mycobacterium smegmatis MC2 155 ATCC 700084 assessed as potentiation of EtBr-induced bactericidal activity at 2 ug/ml after 48 hrs. The settings on record: Mycolicibacterium smegmatis MC2 155.
For series [9] the target is unchanged. Put plainly: Inhibition of LfrA in Mycobacterium smegmatis MC2 155 ATCC 700084 assessed as increase in norfloxacin accumulation at 25 ug/ml measured every 5 mins for 35 mins by fluorometric analysis. The settings on record: Mycolicibacterium smegmatis MC2 155.
The target is the same in series [10]. Put plainly: Inhibition of LfrA in Mycobacterium smegmatis MC2 155 ATCC 700084 assessed as potentiation of EtBr-induced bactericidal activity at 2 ug/ml after 24 hrs. The settings on record: Mycolicibacterium smegmatis MC2 155.
Series [11] shares this target. Put plainly: Inhibition of LfrA in Mycobacterium smegmatis MC2 155 ATCC 700084 assessed as decrease in norfloxacin MIC at 25 ug/ml after 72 hrs by MTT assay relative to control. The settings on record: Mycolicibacterium smegmatis MC2 155.
The target is the same in series [12]. Put plainly: Inhibition of LfrA in Mycobacterium smegmatis MC2 155 ATCC 700084 assessed as decrease in EtBr MIC at 0.78 ug/ml after 72 hrs by MTT assay relative to control. The settings on record: Mycolicibacterium smegmatis MC2 155.
Series [13] shares this target. The experiment in a line: Inhibition of LfrA in Mycobacterium smegmatis MC2 155 ATCC 700084 assessed as potentiation of norfloxacin-induced bactericidal activity at 12.5 ug/ml after 48 hrs. The settings on record: Mycolicibacterium smegmatis MC2 155.
The target is the same in series [14]. Put plainly: Inhibition of LfrA in Mycobacterium smegmatis MC2 155 ATCC 700084 assessed as decrease in norfloxacin MIC at 12.5 ug/ml after 72 hrs by MTT assay relative to control. The settings on record: Mycolicibacterium smegmatis MC2 155.
For series [15] the target is unchanged. Put plainly: Inhibition of LfrA in Mycobacterium smegmatis MC2 155 ATCC 700084 assessed as potentiation of norfloxacin-induced bactericidal activity at 100 ug/ml after 48 hrs. The settings on record: Mycolicibacterium smegmatis MC2 155.

≈ marks a conversion by molar mass, not a printed value. Calls of active or inactive are those of the source. No cut-off for these calls is given here.

The values below come from ChEMBL document CHEMBL4152357, “Efflux pump inhibition by 11H-pyrido[2,1-b]quinazolin-11-one analogues in mycobacteria” (Bioorg Med Chem, 2018).

Regarding `Cc1cccn2c(=O)c3cccc(Cl)c3nc12`, the fold change (FC) was 8 in series [1] and 4 in series [11]. The figures for the fractional inhibitory concentration index (FICI) in series [1] and in series [11] were 0.62 and 0.37, respectively. The MIC in series [2] was found to be 200 µg/mL (≈ 817 µM). Further, in [3], the viability at 24 h, 100 ug/ml is 42%. The inhibition entry in series [4] and in series [9] was “Active” throughout. The Activity in series [5] was more than 50%; in [6], 400 FU. In addition, in series [7], the viability at 24 h, 50 ug/ml turned out to be 40%. Further, the results for the Activity (deltalog10CFU/ml) in [8] and in series [10] were more than 3 and 7, respectively.
In the case of `O=c1c2cccc(F)c2nc2ccccn12`, the fold change (FC) in [12] was 2; in [14], 16. For the same compound, the fractional inhibitory concentration index (FICI) was found to be 0.3 in series [12] and 0.12 in series [14]. In series [2], the MIC came to 200 µg/mL (≈ 934 µM). In [3], the viability at 24 h, 100 ug/ml was 93%. Besides, the Activity in series [5] was more than 50%; in series [9], 3000 FU. Besides, the Activity (deltalog10CFU/ml) in series [13] and in series [15] was 4 throughout. For the same compound, the viability at 24 h, 50 ug/ml in series [7] was 96%.
